# Measurements: patent US20250120967A1, “TYROSINE KINASES INHIBITORS AND USES THEREOF” (GREAT NOVEL THERAPEUTICS BIOTECH & MEDICALS CORPORATION, priority 2023, published 2025)
# Experiments:
# Test in all cases: NCI-60 screen (SRB)
# Format in all cases: cell-based
# SK-MEL-2 = settings: Homo sapiens; SK-MEL-2, Melanoma
# Protocol: (§1) The human tumor cell lines of the cancer screening panel are grown in RPMI 1640 medium containing 5% fetal bovine serum and 2 mM L-glutamine. For a typical screening experiment, cells are inoculated into 96 well microtiter plates in 100 μL at plating densities ranging from 5,000 to 40,000 cells/well depending on the doubling time of individual cell lines. After cell inoculation, the microtiter plates are incubated at 37° C., 5% CO2, 95% air and 100% relative humidity for 24 h prior to addition of experimental drugs. After 24 h, two plates of each cell line are fixed in situ with TCA, to represent a measurement of the cell population for each cell line at the time of drug addition (Tz). Experimental drugs are solubilized in dimethyl sulfoxide at 400-fold the desired final maximum test concentration and stored frozen prior to use. At the time of drug addition, an aliquot of frozen concentrate is thawed and diluted to twice the desired final maximum test concentration with complete medium containing 50 µg/ml gentamicin. An additional four, 10-fold or M log serial dilutions are made to provide a total of five drug concentrations plus control. Aliquots of 100 μl of these different drug dilutions are added to the appropriate microtiter wells already containing 100 μl of medium, resulting in the required final drug concentrations. Following drug addition, the plates are incubated for an additional 48 h at 37° C., 5% CO2, 95% air, and 100% relative humidity. For adherent cells, the assay is terminated by the addition of cold TCA. Cells are fixed in situ by the gentle addition of 50 μl of cold 50% (w/v) TCA (final concentration, 10% TCA) and incubated for 60 minutes at 4° C. The supernatant is discarded, and the plates are washed five times with tap water and air dried. Sulforhodamine B (SRB) solution (100 l) at 0.4% (w/v) in 1% acetic acid is added to each well, and plates are incubated for 10 minutes at room temperature. After staining, unbound dye is removed by washing five times with 1% acetic acid and the plates are air dried. Bound stain is subsequently solubilized with 10 mM trizma base, and the absorbance is read on an automated plate reader at a wavelength of 515 nm. For suspension cells, the methodology is the same except that the assay is terminated by fixing settled cells at the bottom of the wells by gently adding 50 μl of 80% TCA (final concentration, 16% TCA).
# HCC-2998 = settings: Homo sapiens; HCC-2998, Colon Cancer
# Protocol: as §1
# OVCAR-8 = settings: Homo sapiens; OVCAR-8, Ovarian Cancer
# Protocol: as §1
# SK-MEL-28 = settings: Homo sapiens; SK-MEL-28, Melanoma
# Protocol: as §1
# RXF 393 = settings: Homo sapiens; RXF 393, Renal Cancer
# Protocol: as §1
# HCT-15 = settings: Homo sapiens; HCT-15, Colon Cancer
# Protocol: as §1
# SF-295 = settings: Homo sapiens; SF-295, CNS Cancer
# Protocol: as §1
# NCI-H460 = settings: Homo sapiens; NCI-H460, Non-Small Cell Lung Cancer
# Protocol: as §1
# MDA-MB-435 = settings: Homo sapiens; MDA-MB-435, Melanoma
# Protocol: as §1
# T-47D = settings: Homo sapiens, T47D, Breast Cancer
# Protocol: as §1
# UO-31 = settings: Homo sapiens; UO-31, Renal Cancer
# Protocol: as §1
# MCF7 = settings: Homo sapiens; MCF7, Breast Cancer
# Protocol: as §1
# MOLT-4 = settings: Homo sapiens; MOLT-4, Leukemia
# Protocol: as §1
# NCI-H23 = settings: Homo sapiens; NCI-H23, Non-Small Cell Lung Cancer
# Protocol: as §1
# MALME-3M = settings: Homo sapiens, Melanoma
# Protocol: as §1
# SK-OV-3 = settings: Homo sapiens; SK-OV-3, Ovarian Cancer
# Protocol: as §1
# SNB-19 = settings: Homo sapiens; SNB-19, CNS Cancer
# Protocol: as §1
# HS 578T = settings: Homo sapiens, Breast Cancer
# Protocol: as §1
# SW-620 = settings: Homo sapiens; SW-620, Colon Cancer
# Protocol: as §1
# UACC-257 = settings: Homo sapiens; UACC-257, Melanoma
# Protocol: as §1
# KM12 = settings: Homo sapiens; KM12, Colon Cancer
# Protocol: as §1
# SN12C = settings: Homo sapiens, Renal Cancer
# Protocol: as §1
# HOP-62 = settings: Homo sapiens; HOP-62, Non-Small Cell Lung Cancer
# Protocol: as §1
# HOP-92 = settings: Homo sapiens; HOP-92, Non-Small Cell Lung Cancer
# Protocol: as §1
# NCI/ADR-RES = settings: Homo sapiens, Ovarian Cancer
# Protocol: as §1
# SF-268 = settings: Homo sapiens; SF-268, CNS Cancer
# Protocol: as §1
# NCI-H226 = settings: Homo sapiens; NCI-H226, Non-Small Cell Lung Cancer
# Protocol: as §1
Compound,GI50 (SK-MEL-2) [nM],GI50 (HCC-2998) [nM],GI50 (OVCAR-8) [nM],GI50 (SK-MEL-28) [nM],GI50 (RXF 393) [nM],GI50 (HCT-15) [nM],GI50 (SF-295) [nM],GI50 (NCI-H460) [nM],GI50 (MDA-MB-435) [nM],GI50 (T-47D) [nM],GI50 (UO-31) [nM],GI50 (MCF7) [nM],GI50 (MOLT-4) [nM],GI50 (NCI-H23) [nM],GI50 (MALME-3M) [nM],GI50 (SK-OV-3) [nM],GI50 (SNB-19) [nM],GI50 (HS 578T) [nM],GI50 (SW-620) [nM],GI50 (UACC-257) [nM],other results
"COc1cc2nccc(Oc3ccc(NC(=O)C4(NC(=O)c5ccc(F)cc5)CC4)cc3F)c2cc1OC [Cbo-02, N-(1-((4-((6,7-diMethoxyquinolin-4-yl)oxy)-3-fluorophenyl)carbamoyl)cyclopropyl)-4-fluorobenzamide]",6150,2500,3030,1610,2050,2980,2310,2750,1890,2120,2590,3260,5040,2060,1740,2270,3520,2540,1630,2830,GI50 (KM12): 2000 nM; GI50 (SN12C): 1210 nM; GI50 (HOP-62): 1820 nM; GI50 (HOP-92): 1260 nM; GI50 (NCI/ADR-RES): 4900 nM; GI50 (SF-268): 4170 nM; GI50 (NCI-H226): 1580 nM
COc1cc2nccc(Oc3ccc(NC(=O)C4(NC(=O)c5ccc(F)cc5)CC4)cc3F)c2cc1Oc1ccc(N)cc1F [Cbo-10],> 100000,6040,> 100000,1810,> 100000,2410,304,1300,737,1650,1810,771,777,1040,313,302,> 100000,5320,661,1720,GI50 (KM12): 130 nM; GI50 (SN12C): 111 nM; GI50 (HOP-62): 3480 nM; GI50 (HOP-92): 141 nM; GI50 (NCI/ADR-RES): > 100000 nM; GI50 (SF-268): > 100000 nM; GI50 (NCI-H226): 5290 nM
COc1cc2nccc(Oc3ccc(NC(=O)C4(C(=O)Nc5ccc(F)cc5)CC4)cc3F)c2cc1Oc1ccc(N)cc1F [Cbo-23],1360,2280,2060,463,103,315,66.9,457,363,617,316,294,1230,339,298,464,3130,148,449,367,GI50 (KM12): < 10 nM; GI50 (SN12C): 199 nM; GI50 (HOP-62): 1200 nM; GI50 (HOP-92): < 10 nM; GI50 (NCI/ADR-RES): 2040 nM; GI50 (SF-268): 1350 nM; GI50 (NCI-H226): 276 nM
